This is an account of results in patent US5430062A, “Stilbene derivatives as anticancer agents” (priority 1993, dated 1995).

SMILES strings stand for the structures. pIC50: −log10 of the molar value. Where a name gives a salt, the structure may show the parent alone. Read-outs that look alike come from different tables or passages of the source.

The test system of data set [1] is tubulin. The data set can be described thus: Inhibition of tubulin polymerization (turbidimetry). The data set is classed as biochemical, bovine.
The test system of the next data set is M14 melanoma. Description: Cytotoxicity, M14.
The test system of another data set is SF-295 CNS cancer. Description: Cytotoxicity, SF-295. The settings on record: read-out: cytotoxicity GI50, SF-295, 50% growth inhibition, average of two determinations, 8640 min.
The next data set has as its system CAKI-1 renal cancer. Description: Cytotoxicity, CAKI-1.
In data set [2] the test system is DMS 273 small cell lung cancer. The data set can be described thus: Cytotoxicity, DMS 273. Particulars: read-out: cytotoxicity GI50, DMS 273, 50% growth inhibition, average of two determinations, 8640 min.
In a further data set the test system is OVCAR-3 ovarian cancer. The data set can be described thus: Cytotoxicity, OVCAR-3.
Another data set concerns COLO 205 colon cancer. Description: Cytotoxicity, COLO 205. Particulars: read-out: cytotoxicity GI50, COLO 205, 50% growth inhibition, average of two determinations, 8640 min.
A further data set concerns HL-60 (TB) leukemia. Description: Cytotoxicity, HL-60(TB) leukemia. Particulars: read-out: cytotoxicity GI50, HL-60(TB), 50% growth inhibition, average of two determinations, 8640 min.
A short description of data set [3]: Stability in DMSO solution at room temperature (NMR). The data set is classed as physicochemical. The settings on record: protected from light, read-out: formation of the cis isomer (1a). The method, then:
The cytotoxic compounds gave reproducible results in the tubulin polymerization assay with the exception of the trans stilbenes 1b and 6n. […] The cytotoxic properties of these two agents may similarly result from chemical changes in solution. […] The ratio of 6n:5n was 1:1 after 24 hours of the dissolution of pure 6n in DMSO at room temperature.

Data set [4] concerns tubulin. The data set can be described thus: Inhibition of [3H]colchicine binding to tubulin (DEAE-filter). Also on record: species or system bovine.
For data set [5], the system named is tubulin. Particulars: cited from earlier work.
The next data set has as its system MLM melanoma. Description: MTT cytotoxicity assay, MLM. Particulars: […], read-out: Cytotoxicity ED50, MLM.
The test system of the next data set is A-549 lung carcinoma. The data set can be described thus: MTT cytotoxicity assay, A-549. The settings on record: Homo sapiens, A549, […], read-out: Cytotoxicity ED50, A-549.
The test system of another data set is MCF-7 breast carcinoma. Description: MTT cytotoxicity assay, MCF-7. The settings on record: Homo sapiens, MCF7, […], read-out: Cytotoxicity ED50, MCF-7. For orientation: Formazan colour is commonly taken as a measure of viable cells.
The subject of data set [6] is HT-29 colon adenocarcinoma. The data set can be described thus: MTT cytotoxicity assay, HT-29. Particulars: Homo sapiens, HT-29, […], read-out: Cytotoxicity ED50, HT-29.
The mark [7] stands for this setting: Table X, different glutamate preparation (1M monosodium glutamate and GTP), read-out: inhibn of tubulin polymn IC50 (±SD).
Setting [8] is: read-out: cytotoxicity GI50, M14, 50% growth inhibition, average of two determinations, 8640 min.
[9] abbreviates: read-out: cytotoxicity GI50, CAKI-1; 50% growth inhibition; average of two determinations; 8640 min.
Setting [10] is: read-out: cytotoxicity GI50, OVCAR-3, 50% growth inhibition, average of two determinations, 8640 min.
[11] abbreviates: read-out: cytotoxicity GI50, M14; 50% growth inhibition; average of two determinations; 8640 min.
Setting [12] is: read-out: cytotoxicity GI50, OVCAR-3; 50% growth inhibition; average of two determinations; 8640 min.
The mark [13] stands for this setting: Table X, different glutamate preparation (1M monosodium glutamate and GTP), Hydrochloride, read-out: inhibn of tubulin polymn IC50 (±SD).
Where [14] appears, read: benzylanilines, Table X series, read-out: tubulin polymerization IC50.
The mark [15] stands for this setting: read-out: cytotoxicity GI50, M14, 50% growth inhibition, average of two determinations, 8640 min, Hydrochloride.
[16] abbreviates: read-out: cytotoxicity GI50, CAKI-1, 50% growth inhibition, average of two determinations, 8640 min, Hydrochloride.
Where [17] appears, read: read-out: cytotoxicity GI50, OVCAR-3, 50% growth inhibition, average of two determinations, 8640 min, Hydrochloride.
Where [18] appears, read: read-out: cytotoxicity GI50, CAKI-1, 50% growth inhibition, average of two determinations, 8640 min.

With `CCOc1ccc(NCc2cc(OC)c(OC)c(OC)c2)cc1` [109d, 4-Ethoxy-N-(3,4,5-trimethoxybenzyl)aniline], the pIC50 with tubulin [1] (setting [7]) is 4.92. Further, the GI50 (in general, the concentration at which growth is held to half of that of the control) with M14 melanoma (setting [8]) was 403 nM; in the data set with SF-295 CNS cancer, 274 nM; in the data set with CAKI-1 renal cancer (setting [9]) it was 2040 nM; in data set [2], 296 nM; with OVCAR-3 ovarian cancer (setting [10]), 340 nM; with COLO 205 colon cancer, 432 nM. For the same compound, the GI50 with HL-60 (TB) leukemia was 296 nM.
Turning to `COc1cc(C=Nc2ccc(C(C)C)cc2)cc(OC)c1OC` [108f, 4-Isopropyl-N-(3,4,5-trimethoxybenzylidene)aniline], the pIC50 in the data set with tubulin [1] (setting [7]) was less than 4.40. Also, the GI50 was more than 100000 nM in the data set on M14 melanoma (setting [11]); more than 100000 nM in the data set with SF-295 CNS cancer; more than 100000 nM in the data set with CAKI-1 renal cancer (setting [9]); 52500 nM in data set [2]; more than 100000 nM in the data set on OVCAR-3 ovarian cancer (setting [12]); more than 100000 nM in the data set with COLO 205 colon cancer. Besides, in the data set with HL-60 (TB) leukemia, the GI50 is more than 100000 nM.
In the case of `CCOc1ccc(NCc2cc(OC)c(OC)c(OC)c2)cc1` [110d, 4-Ethoxy-N-(3,4,5-trimethoxybenzyl)aniline Hydrochloride], the pIC50 in the data set on tubulin [1] (setting [13]) and in the data set with tubulin [1] (setting [14]) was 4.96 throughout. In addition, the GI50 with M14 melanoma (setting [15]) was determined as 532 nM; with SF-295 CNS cancer (Hydrochloride), 418 nM; in the data set with CAKI-1 renal cancer (setting [16]) it was 1050 nM; in data set [2] (Hydrochloride), 961 nM; in the data set with OVCAR-3 ovarian cancer (setting [17]), 464 nM; in the data set on COLO 205 colon cancer (Hydrochloride) it was 538 nM. For the same compound, the GI50 in the data set on HL-60 (TB) leukemia (Hydrochloride) is 448 nM.
As for `COc1cc(CNc2ccc(SC)cc2)cc(OC)c1OC` [110e, 4-Methylthio-N-(3,4,5-trimethoxybenzyl)aniline Hydrochloride], the pIC50 with tubulin [1] (setting [13]) and with tubulin [1] (setting [14]) was 4.80 each time. The GI50 in the data set on M14 melanoma (setting [15]) was found to be 4840 nM; with SF-295 CNS cancer (Hydrochloride) it was 3410 nM; with CAKI-1 renal cancer (setting [16]), 16300 nM; in [2] (Hydrochloride) it was 4910 nM; with OVCAR-3 ovarian cancer (setting [17]), 4850 nM; in the data set on COLO 205 colon cancer (Hydrochloride), 3600 nM. In addition, the GI50 with HL-60 (TB) leukemia (Hydrochloride) came out at 3290 nM.
As for `COc1ccc(NCc2cc(OC)c(OC)c(OC)c2)cc1` [109c, 4-Methoxy-N-(3,4,5-trimethoxybenzyl)aniline], the pIC50 in the data set on tubulin [1] (setting [7]) was 5.34. Further, the GI50 is 266 nM with SF-295 CNS cancer; 458 nM in the data set with CAKI-1 renal cancer (setting [18]); 141 nM in [2]; 363 nM in the data set with OVCAR-3 ovarian cancer (setting [10]); 235 nM in the data set on COLO 205 colon cancer; 115 nM in the data set on HL-60 (TB) leukemia.
Consider `COc1ccc(/C=C/c2cc(OC)c(OC)c(OC)c2)cc1O` [compound 1b, reference compound], for which the degraded at […] in [3] (four weeks) was approximately 10%. The degraded at 336 h in data set [3] (two weeks) was approximately 3%.
With `COc1ccc(NCc2cc(OC)c(OC)c(OC)c2)cc1` [110c, 4-Methoxy-N-(3,4,5-trimethoxybenzyl)aniline Hydrochloride], the pIC50 in the data set on tubulin [1] (setting [13]) and with tubulin [1] (setting [14]) was 5.05 in each case. Moreover, the GI50 came to 2380 nM in the data set with M14 melanoma (setting [11]); 2320 nM in the data set on SF-295 CNS cancer (Hydrochloride); 2500 nM in the data set on CAKI-1 renal cancer (setting [16]); 534 nM in [2] (Hydrochloride); 1960 nM in the data set on OVCAR-3 ovarian cancer (setting [17]); 1660 nM in the data set on COLO 205 colon cancer (Hydrochloride). The GI50 in the data set with HL-60 (TB) leukemia (Hydrochloride) was found to be 834 nM.
Consider `CCc1ccc(NCc2cc(OC)c(OC)c(OC)c2)cc1` [109b, 4-Ethyl-N-(3,4,5-trimethoxybenzyl)aniline], for which the pIC50 in the data set with tubulin [1] (setting [7]) and with tubulin [1] (setting [14]) was 5.52 in each case. The GI50 with M14 melanoma (setting [8]) worked out at 315 nM; with SF-295 CNS cancer, 266 nM; in the data set with CAKI-1 renal cancer (setting [9]) it was 354 nM; in data set [2], 135 nM; in the data set on OVCAR-3 ovarian cancer (setting [10]), 283 nM; with COLO 205 colon cancer, 344 nM. Further, the GI50 in the data set with HL-60 (TB) leukemia came out at 168 nM.
Regarding `COc1cc(CNc2ccc(SC)cc2)cc(OC)c1OC` [109e, 4-Methylthio-N-(3,4,5-trimethoxybenzyl)aniline], in the data set with tubulin [1] (setting [7]), the pIC50 was less than 4.40. Further, the GI50 in the data set on M14 melanoma (setting [8]) was found to be 5260 nM; in the data set with SF-295 CNS cancer, 7280 nM; in the data set with CAKI-1 renal cancer (setting [18]) it was 32000 nM; in data set [2], 3090 nM; in the data set on OVCAR-3 ovarian cancer (setting [10]), 5930 nM; in the data set with COLO 205 colon cancer, 3880 nM. Moreover, in the data set with HL-60 (TB) leukemia, the GI50 came to 3700 nM.
`CCCc1ccc(N=Cc2cc(OC)c(OC)c(OC)c2)cc1` [108g, 4-n-Propyl-N-(3,4,5-trimethoxybenzylidene)aniline]: the pIC50 in the data set on tubulin [1] (setting [7]) is less than 4.40. Also, the GI50 (with M14 melanoma (setting [11]); with SF-295 CNS cancer; with CAKI-1 renal cancer (setting [9]); in [2]; in the data set on OVCAR-3 ovarian cancer (setting [12]); in the data set with COLO 205 colon cancer) was more than 100000 nM each time. In addition, the GI50 with HL-60 (TB) leukemia was 22600 nM.
With `CCOc1ccc(N=Cc2cc(OC)c(OC)c(OC)c2)cc1` [108d, 4-Ethoxy-N-(3,4,5-trimethoxybenzylidene)aniline], in the data set with tubulin [1] (setting [7]), the pIC50 was less than 4.40. In addition, the GI50 (in the data set with M14 melanoma (setting [11]); with SF-295 CNS cancer; with CAKI-1 renal cancer (setting [9]); in data set [2]; with OVCAR-3 ovarian cancer (setting [12]); in the data set on HL-60 (TB) leukemia) was more than 100000 nM in each case.
`COc1ccc(/C=C\c2cc(OC)c(OC)c(OC)c2)cc1O` [compound 1a, reference compound]: the “inhibition of colchicine binding (in words)” value in the data set on tubulin [4] is recorded as “nearly total inhibition of colchicine binding”. Besides, the “competitive inhibition of colchicine binding” value in the data set on tubulin [5] is given as “competitively inhibit the binding of radiolabeled colchicine to tubulin”. The pIC50 was 10.85 in the data set on MLM melanoma, 11.92 in the data set on A-549 lung carcinoma, 11.42 in the data set on MCF-7 breast carcinoma and 10.92 in data set [6].
In the case of `COc1cc(CNc2ccc(C)cc2)cc(OC)c1OC` [109a, 4-Methyl-N-(3,4,5-trimethoxybenzyl)aniline], the pIC50 in the data set with tubulin [1] (setting [7]) and in the data set with tubulin [1] (setting [14]) was 5.22 in each case. The 50% growth inhibitory concentration (GI50) in the data set with M14 melanoma (setting [8]) is 150 nM; in the data set on SF-295 CNS cancer, 163 nM; in data set [2], 92.6 nM; in the data set on COLO 205 colon cancer it was 152 nM; in the data set with HL-60 (TB) leukemia, 122 nM.
Regarding `CCc1ccc(NCc2cc(OC)c(OC)c(OC)c2)cc1` [110b, 4-Ethyl-N-(3,4,5-trimethoxybenzyl)aniline Hydrochloride], the pIC50 was 5.14 in the data set with tubulin [1] (setting [13]) and 5.14 in the data set with tubulin [1] (benzylanilines, Table X series, Hydrochloride, read-out: tubulin polymerization IC50). Moreover, the GI50 in the data set with M14 melanoma (setting [15]) was 437 nM; in the data set with SF-295 CNS cancer (Hydrochloride), 339 nM; in data set [2] (Hydrochloride) it was 818 nM; in the data set with OVCAR-3 ovarian cancer (setting [17]) it was 405 nM; in the data set on COLO 205 colon cancer (Hydrochloride), 352 nM; in the data set on HL-60 (TB) leukemia (Hydrochloride), 245 nM.
